The results in this text go back to patent US20250018030A1, “PHARMACEUTICAL COMPOSITION FOR PROMOTING CANCER IMMUNOTHERAPY AND METHOD FOR PROMOTING CANCER IMMUNOTHERAPY” (China Medical University, priority 2023, published 2025).

For assay [1], the system named is Tc1 cells. The experiment in a line: RNA-seq gene expression analysis of genipin-treated Tc1 cells. It counts as cell-based, Mouse. The protocol:
For RNA-seq analysis, the differential gene expression analysis was conducted by RNA-seq quantification following the procedure of Illumina and was performed by Genomics (Taiwan). Low-quality bases and sequencing adapters in the raw data generated from the Illumina sequencer were removed, and the final library quality was assessed on the Agilent Bioanalyzer 2100 system. The gene expression profiles in the genipin-treated and control Tc1 cells were analyzed and compared. The differentially expressed genes were calculated by EBSeq, and functional analysis, such as (gene ontology) GO analysis, was performed using cluster Profiler. For real-time PCR, total RNA was extracted using the RNeasy Micro Kit (Qiagen), and cDNA was synthesized with the PrimeScript™ RT reagent kit (TakaRa). Real-time PCR amplification of IFN-γ was performed in triplicate using TaqMan Gene Expression Assay (Mm01168134_m1) in a Step One Plus system (Applied Biosystems). 18S primers were used as endogenous controls, and the relative gene expression was calculated using the 2^ΔΔCt method.

Another assay concerns Th17 cells. Nature of the assay: Cytokine staining of genipin-treated skewed Th17 cells. It counts as cell-based, Mouse. As to conditions: data not shown. The protocol: (§1) Mouse lymph nodes and spleens were harvested, and naïve CD4 or CD8 T cells isolated via magnetic bead separation (STEMCELL Technologies) and activated in α-CD3 (10 μg/ml) and α-CD28 (1 μg/ml) pre-coated 96-well plates. Skewing conditions were as follows: Th1 cells/Tc1 cells ([…] 10 μ/ml α-IL-4), Th2 cells/Tc2 cells (20 ng/ml IL-4 and 10 μ/ml α-IFN-γ), Th17 cells/Tc17 cells (20 ng/ml IL-6, 1.25 ng/ml […], 20 ng/ml IL-1β, 20 ng/ml IL-23, 10 μg/ml α-IFN-γ and 10 μg/ml α-IL-4), and Treg cells (5 ng/ml TGF-β, 10 μg/ml α-IFN-γ and 10 μg/ml α-IL-4) in the indicated medium. Cells were cultured for 4-5 days followed by treatment with genipin (3.125 μM, 6.25 μM, 12.5 μM) or DMSO for 12-16 hours.
(§2) Monoclonal antibodies were purchased from BD Biosciences or eBioscience. For intracellular cytokine staining (ICS), cells were first restimulated by PMA/ionomycin for 5 hours in the presence of GolgiStop (BD Biosciences), followed by surface epitope staining markers before being fixed/permeabilized (BD Cytofix/Cytoperm™) and stained with antibodies targeting intracellular antigens. Cells were finally fixed with 1.5% formaldehyde for 10 minutes at room temperature and analyzed on a FACSVerse flow cytometer (BD Bioscience). Data were analyzed using FlowJo software (Tree Star Inc.).

For another assay, the system named is Tc17 cells. Nature of the assay: Intracellular cytokine staining / flow cytometry of genipin-treated skewed Tc17 cells. It is filed as cell-based, Mouse. As to conditions: FIG. 1E-1G. The protocol: as §1, §2
Assay [2] relates to Tc1 cells. Nature of the assay: Immunoblotting of PI3K/AKT/mTOR and STAT4 in Tc1 cells. It is filed as cell-based, Mouse. The protocol: The protein concentrations of the total cell lysate or the extracted histones were determined by a Bradford assay (Bio-Rad Laboratories). Immunoblot analysis was performed with 10% sodium dodecyl sulfate-polyacrylamide gel electrophoresis, followed by overnight incubation with primary antibodies (1:1000 dilution) and incubation with horseradish peroxidase-conjugated secondary antibodies (1:5000 dilution; GeneTex). The polyvinylidene difluoride membranes were probed with antibodies against UCP2, pPI3K/PI3K, pAKT/AKT, pmTOR/mTOR, pSTAT1/STAT1, pSTAT4/STAT4, and H3K9Ac, which were purchased from Cell Signaling Technology or Genetex. Actin or Lamin B1 (Merck-Millipore) was used as the loading control. Signals were detected using an ECL solution (GE) and optical density quantified using ImageJ software.
For orientation: Immunoblotting shows a protein as a band on a membrane.

A further assay relates to tumors of PDAC patients. The experiment in a line: Ex vivo genipin treatment of tumors of PDAC patients, flow cytometry. It is filed as cell-based, human. The protocol: as §2
(§3) PDAC human subject study was approved by the Research Ethics Committee of China Medical University & Hospital (CMUH109-REC2-148). 10 ml of fresh blood and 0.1-0.5 mm^3 of tumor mass were collected on the same day from patients who underwent surgical resection. Monocytes were isolated from the patients' peripheral blood mononuclear cell (PBMC) or tumor mass. Cells were resuspended in RPMI medium containing 10% FBS and seeded at a density of 2×10^5/well in a 12-well plate. Cells were treated with genipin (12.5 μM, 25 μM) and incubated overnight before staining for the flow cytometry analysis.
For orientation: A flow cytometer gives signals particle by particle.

The subject of a further assay is PBMC of PDAC patients. The experiment in a line: Ex vivo genipin treatment of PBMC of PDAC patients, flow cytometry. It counts as cell-based, human. As to the method: as §2, §3
Assay [3] relates to Tc1 cells. Nature of the assay: Intracellular cytokine staining / flow cytometry of genipin-treated skewed Tc1 cells. It counts as cell-based, Mouse. As to the method:
as §1, §2

The subject of assay [4] is Th2 cells and regulatory T cells (Treg). The experiment in a line: Populations of Th2 cells and Treg cells after genipin. It is filed as cell-based, Mouse. Conditions: genipin-treated; data not shown. As to the method:
as §1, §2

The mark [5] stands for this setting: genipin-treated Tc1 cells, FIG. 2D.

With `COC(=O)C1=CO[C@@H](O)[C@@H]2C(CO)=CC[C@H]12` [genipin], the “Expression of genes that control IFN-γ signaling, leukocyte activation and bioenergetic metabolism (GOBP enrichment)” value in the assay with Tc1 cells [1] (genipin 12.5 μM, FIG. 2C) is “correlated positively”. In the assay on Tc1 cells [1] (setting [5]), the “Expression of genes related to T cell activation and migration (Tbx21, Ccl5, Eomes, Il12rb2, Ctla2a, Ctla2b)” value is on record as “augmented the expression”; the “Expression of glycolytic pathway genes (Hk2, Gck, Pfkl, Aldoc, Pgam1, Eno2, Ldha)” value is on record as “increased expression”. Moreover, in the assay with Th17 cells, the “IFN-γ in Th17 cells” value was “increased IFN-γ” and the “IL-17 expression in Th17 cells” value is listed as “without an impact on IL-17 expression”. For the same compound, in the assay on Tc17 cells, the “IFN-γ production in Tc17 cells” value is reported as “promoted IFN-γ” and the “IL-17 expression in Tc17 cells” value is “without impacting IL-17 expression”. In addition, in the assay on Tc1 cells [2] (genipin 12 hours, FIG. 2Q), the “STAT4 levels / activation” value is listed as “STAT4 activation”. Besides, the “Expression of mTOR and its upstream kinases PI3K and AKT” value in the assay with Tc1 cells [2] (genipin-treated Tc1 cells) is reported as “increased”. In addition, the “Tc1 cells (IFN-γ-producing CD8+ T cells)” value in the assay with tumors of PDAC patients (genipin 12.5, 25 μM overnight, FIG. 8C-8D) is reported as “increased Tc1 cells”. Also, the “Th1 cells population (IFN-γ-producing CD4+ T cells)” value with tumors of PDAC patients (genipin overnight, FIG. 8G) is “no significant changes”. In addition, the “Th17 cells (IL-17-producing CD4+ T cells)” value in the assay with tumors of PDAC patients (genipin overnight, FIG. 8H) is listed as “did not increase”. Further, the “Tc1 cells (IFN-γ-producing CD8+ T cells)” value in the assay with PBMC of PDAC patients (genipin 12.5, 25 μM overnight, FIG. 8A-8B) was “increased Tc1 cells”. Also, the “Th1 cells population (IFN-γ-producing CD4+ T cells)” value in the assay with PBMC of PDAC patients (genipin overnight, FIG. 8E) is recorded as “no significant changes”. In addition, in the assay on PBMC of PDAC patients (genipin overnight, FIG. 8F), the “Th17 cells (IL-17-producing CD4+ T cells)” value is “did not increase”. For the same compound, the “IL-12R expression in Tc1 cells” value in the assay on Tc1 cells [3] (genipin 12.5 μM, FIG. 2O-2P) is “increased IL-12R expression”. Further, in the assay with Tc1 cells [3] (genipin 3.125, 6.25, 12.5 μM, 12-16 hours, FIG. 1C-1D), the “IFN-γ production in Tc1 cells” value is on record as “promoted IFN-γ”. The “T-bet expression in IFN-γ+CD8+ T cell population of Tc1 cells” value in the assay on Tc1 cells [3] (genipin-treated Tc1 cells, FIG. 1J) is recorded as “elevated the expression of T-bet”. Besides, in assay [4], the “Population of Th2 cells” value is “nor significantly altering the populations” and the “Population of regulatory T cells (Treg)” value is given as “nor significantly altering the populations”.
